Assay results published in PMC9609871, “Binding and Kinetic Analysis of Human Protein Phosphatase PP2A Interactions with Caspase 9 Protein and the Interfering Peptide C9h” (Pharmaceutics, 2022).
pKd: −log10 of the molar value. Peptide text beside a SMILES is read from it. * marks the point of attachment. Biotin = O=C1N[C@H]2[C@H](CS[C@H]2CCCCC(=O)*)N1

How the values were obtained:
PP2A [1] = target: T1, PP2A (Homo sapiens, UniProt P67775); assay: BLI: PP2A binding to immobilized biotinylated C9h-Cter peptide (Streptavidin biosensor)
T1 construct: purchased LSBio
Description: Kinetic measurements of PP2A against biotinylated C9h-Cter peptide were run with Streptavidin biosensors (Fortebio, #18-5019). The initial step consisted of coating the biosensor with the peptide diluted in SD at 100 µM for 180 s in 4 µL (not shown) and was followed by three steps for the kinetic study: (i) initial baseline in 300 µL SD for 30 s was measured; (ii) association of PP2A at the indicated concentrations for 180 s in 4 µL was used; and (iii) dissociation step was then monitored in 300 µL SD for 150 s.
Experiments using empty immunosensors (no ligand loaded) were run as control. Sensorgrams were fit globally to a 1:1 binding model by BLItz Pro software, from which the association (kon) and dissociation (koff) rate constants and apparent affinities (KD) were calculated. X2 is the sum of squared deviations between the actual data point and the fitted curve. Values close to zero indicate a good curve fit. The R2 coefficient of determination is a statistical measure of how well the fitted curve approximate the real data points. Values of R2 near 1 indicate a near-perfect fit.

PP2A [2] = target: T1, PP2A; assay: ELISA: PP2A binding to immobilized biotinylated C9h peptides; settings: OD 450 nm
Description: A total of 100 μL of biotinylated peptides diluted at 100 μM in PBS was incubated for 2 h at room temperature in a 96-well Streptavidine-coated plate (Pierce, Illkirch, Strasbourg, France). Wells were washed five times with PBS/0.05% Tween-20 (PBST) and filled with 100 μL of PP2A (Sigma) diluted in PBS/2.5% BSA (Sigma) at the indicated dilutions. The plate was incubated over night at 4 °C and washed five times with PBST. A total of 100 μL of rabbit polyclonal IgG anti-human PP2Aα (Santa Cruz Biotechnology, Heidelberg, Germany) was added at 5 μg/mL in PBS/BSA for 1 h at room temperature. Wells were washed 5 times with PBST and filled with 100 μL of HRP conjugated anti-rabbit IgG (Sigma) diluted at 1:20,000 in PBS/BSA for 1 h at room temperature. Wells were washed 5 times with PBST, and 100 μL of TMB substrate (Pierce) were added and incubated for 15–45 min. The reaction was stopped with 50 μL of 2 N sulphuric acid, and the absorbance was measured at 450 nm on a Multiskan EX plate reader (Thermo Scientific, Illkirch, Strasbourg, France). The Caspase 9 peptide C9h was labelled with biotin at the N-terminal and C-terminal end of the peptide.

Caspase 9 = assay: BLI: Caspase 9 analyte binding to immobilized PP2A (Protein A biosensor, anti-PP2A); set-up: species or system human; settings: summary: close to, Caspase 9 analyte on immobilized PP2A; read-out: affinity, both models
Description: Kinetic analysis was performed based on biolayer interferometry (BLI) by using a BLItz instrument (ForteBio, Bayonne, France) at room temperature. Prior to use, each biosensor was hydrated in sample diluent (SD: PBS1X, pH 7.0, 0.02% Tween 20, 0.1% BSA) for at least 10 min. Kinetic measurements of PP2A/Caspase 9 interactions were run with Protein A biosensors (Fortebio) and consisted of seven steps, all performed in reaction buffer, as follows: (i) initial baseline in 300 µL SD for 30 s was measured; (ii) 4 µL of mouse anti-Caspase 9 or rabbit anti-PP2A were immobilized on the sensor for 150 s at 133 nM; (iii) the immunosensor was washed with 300 µL SD for 120 s; (iv) 4 µL of purified ligand Caspase 9 at 566 nM (Origen) or PP2A at 694 nM (LSBio) were loaded on the immunosensor for 150 s; (v) the ligand-coated immunosensor was washed with 300 µL SD for 120 s; (vi) association of purified analytes diluted in SD at the mentioned concentrations was studied for 150 s in 4 µL; and (vii) dissociation step was then monitored in 300 µL SD for 120 s.
Experiments using empty immunosensors (no ligand loaded) were run as control. Sensorgrams were fit globally to a 1:1 binding model by BLItz Pro software, from which the association (kon) and dissociation (koff) rate constants and apparent affinities (KD) were calculated. […]

T1 sequence (P67775 whole entry): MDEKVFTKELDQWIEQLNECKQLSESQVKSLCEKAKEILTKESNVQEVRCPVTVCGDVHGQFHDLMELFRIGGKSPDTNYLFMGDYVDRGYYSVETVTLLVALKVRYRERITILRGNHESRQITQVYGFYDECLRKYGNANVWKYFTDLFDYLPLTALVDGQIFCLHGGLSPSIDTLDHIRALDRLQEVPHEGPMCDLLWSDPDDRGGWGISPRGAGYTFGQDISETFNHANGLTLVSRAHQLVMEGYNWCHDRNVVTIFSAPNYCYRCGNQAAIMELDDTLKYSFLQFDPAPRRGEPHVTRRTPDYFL

| Compound | koff (PP2A [1]; biotinylated C9h-Cter coated at 100 µM, analyte PP2A 463, 556 and 694 nM, pH 7.0, room temperature, dissociation 150 s, global 1:1 fit) [s⁻¹] | dissociation rate of PP2A relative to that with immobilized Caspase 9 (PP2A [1]; immobilized C9h-Cter versus immobilized Caspase 9) | affinity for PP2A compared with whole protein Caspase 9 (PP2A [1]; qualitative comparison) | signal recognition compared with C9h-Nter (PP2A [2]; PP2A 0.6 μg/mL, duplicate wells) | binding of PP2A to biotinylated peptide (PP2A [2]; peptide 100 μM on streptavidin plate, PP2A 0.6 μg/mL overnight at 4 °C, mean of duplicate wells, representative of two independent experiments, irrelevant biotinylated peptide as negative control) | pKd (Caspase 9) |
| --- | --- | --- | --- | --- | --- | --- |
| CC[C@H](C)[C@H](NC(=O)[C@H](CC(=O)O)NC(=O)[C@H](CC(=O)O)NC(=O)[C@H](CC(C)C)NC(=O)[C@@H](NC(=O)[C@H](CCC(=O)O)NC(=O)[C@@H](NC(=O)[C@@H](N)Cc1ccc(O)cc1)C(C)C)[C@@H](C)O)C(=O)N[C@@H](Cc1ccccc1)C(=O)N[C@@H](CCC(=O)O)C(=O)N[C@@H](CCC(N)=O)C(=O)N[C@@H](Cc1c[nH]c2ccccc12)C(=O)N[C@@H](C)C(=O)N[C@@H](Cc1c[nH]cn1)C(=O)N[C@@H](CO)C(=O)N[C@@H](CCC(=O)O)C(=O)N[C@@H](CC(=O)O)C(=O)N[C@@H](CC(C)C)C(=O)N[C@@H](CCCCNC(=O)CCCC[C@@H]1SC[C@@H]2NC(=O)N[C@@H]21)C(=O)O [C9h-Cter] (H-YVETLDDIFEQWAHSEDLK(Biotin)-OH; N-terminus and C-terminus assumed) | 0.0087 | approximatively one log higher | slightly lower affinity | stronger signal recognition than that of C9h-Nter | bind to the PP2A protein in a specific manner | – |
| PP2A: protein phosphatase 2A (LSBio), serine/threonine phosphatase | – | – | – | – | – | ~7.00 |
